According to the NIST ThermoML archive (doi:10.1016/j.jct.2012.11.027):
± gives the expanded uncertainty stated by the source.

Assays:
[1] = xn = mol fraction of the nth substance listed; details: 101 kPa, Liquid, Linear variable-path acoustic interferometer, x2 = 0
[2] = 101 kPa, Liquid, Linear variable-path acoustic interferometer

Structure (SMILES) | speed of sound ([1]; 288.15 K) [m/s] | speed of sound ([1]; 293.15 K) [m/s] | speed of sound ([1]; 298.15 K) [m/s] | speed of sound ([1]; 303.15 K) [m/s] | speed of sound ([1]; 308.15 K) [m/s] | speed of sound ([1]; 313.15 K) [m/s] | speed of sound ([1]; 318.15 K) [m/s] | speed of sound ([2]; 288.15 K) [m/s] | speed of sound ([2]; 293.15 K) [m/s] | speed of sound ([2]; 298.15 K) [m/s] | speed of sound ([2]; 303.15 K) [m/s] | speed of sound ([2]; 308.15 K) [m/s] | speed of sound ([2]; 313.15 K) [m/s] | speed of sound ([2]; 318.15 K) [m/s]
CCCCCCO [hexan-1-ol] + C=CC(=O)OC | 1339.2 ± 1.9 | 1321.2 ± 1.9 | 1306.9 ± 1.9 | 1289.5 ± 1.9 | 1275.7 ± 1.9 | 1256.3 ± 1.9 | 1237.5 ± 1.8 | – | – | – | – | – | – | –
CCCCCCCCCCO [decan-1-ol] + C=CC(=O)OC | 1410.6 ± 2 | 1393.6 ± 2 | 1377.3 ± 2 | 1359.8 ± 2 | 1345.7 ± 2 | 1326.7 ± 2 | 1312.1 ± 1.9 | – | – | – | – | – | – | –
CCCCCCCCCCO [decan-1-ol] | – | – | – | – | – | – | – | 1410.6 ± 2 | 1393.6 ± 2 | 1377.3 ± 2 | 1359.8 ± 2 | 1345.7 ± 2 | 1326.7 ± 2 | 1312.1 ± 1.9
C=CC(=O)OC [methyl propenoate] | – | – | – | – | – | – | – | 1226.6 ± 1.8 | 1204.6 ± 1.8 | 1183.6 ± 1.8 | 1162.2 ± 1.7 | 1139.1 ± 1.7 | 1117.8 ± 1.7 | 1095.7 ± 1.7
CCCCCCCCO [octan-1-ol] | – | – | – | – | – | – | – | 1390.2 ± 2 | 1371.5 ± 2 | 1352.4 ± 2 | 1333.1 ± 2 | 1315.7 ± 2 | 1298.9 ± 1.9 | 1282.9 ± 1.9
CCCCCCO [hexan-1-ol] | – | – | – | – | – | – | – | 1339.2 ± 1.9 | 1321.2 ± 1.9 | 1306.9 ± 1.9 | 1289.5 ± 1.9 | 1275.7 ± 1.9 | 1256.3 ± 1.9 | 1237.5 ± 1.8
CCCCO [butan-1-ol] | – | – | – | – | – | – | – | 1282.2 ± 1.9 | 1262.4 ± 1.9 | 1242.6 ± 1.8 | 1225.8 ± 1.8 | 1207.6 ± 1.8 | 1189.2 ± 1.8 | 1170 ± 1.8
CCCCO [butan-1-ol] + C=CC(=O)OC | 1282.2 ± 1.9 | 1262.4 ± 1.9 | 1242.6 ± 1.8 | 1225.8 ± 1.8 | 1207.6 ± 1.8 | 1189.2 ± 1.8 | 1170 ± 1.8 | – | – | – | – | – | – | –
CCCCCCCCO [octan-1-ol] + C=CC(=O)OC | 1390.2 ± 2 | 1371.5 ± 2 | 1352.4 ± 2 | 1333.1 ± 2 | 1315.7 ± 2 | 1298.9 ± 1.9 | 1282.9 ± 1.9 | – | – | – | – | – | – | –
